Source: US20240132479A1, “THERAPEUTIC COMPOUNDS AND USES THEREOF” (Board of Trustees of Michigan State University, priority 2021, published 2024)
In brackets after ≈: the same amount, converted by molar mass. Like-named read-outs stand apart in the source and are kept apart here.

Tests used:
[1] = test system: Mycobacterium abscessus (ATCC 19977); assay: Ex vivo efficacy, M. abscessus; format: cell-based
Experimental: (§1) The compounds of Examples 2, 21A, and 19 were tested for 1) for ex vivo efficacy and 2) cytotoxicity. Ex vivo efficacy was determined by inhibition of Mycobacterium tuberculosis (Mtb) H37Rv, Mycobacterium avium complex (ATCC 700891 MAC 101), and Mycobacterium abscessus (ATCC 19977). Cytotoxicity tests were carried out against three human cell lines, THP-1 (ATCC TIB-202), HepG2 (ATCC HB-8065), and HeLa (ATCC CCL-2), IC50 values were calculated from dose response curves to determine cytotoxicity of test compounds. […] Of the three compounds tested for ex vivo efficacy against NTM strains, there was no activity (>32 mg/L) against M. avium and one compound with activity against M. abscessus. […] These compounds were not cytotoxic (>128 mg/L) against HepG2 and HeLa cells. The compounds average therapeutic index for HepG2 was 12.4-48.3 and 96.7-389 for HeLa.

[2] = test system: M. abscessus (ATCC 19977); assay: MIC determination in microdilution assay, M. abscessus; format: cell-based, Mycobacterium abscessus; details: Mycobacteroides abscessus, ATCC19977; read-out: MIC M. abcessus 19977
in vitro = format: cell-based; details: human
Experimental: as §1

Mtb H37Rv = assay: MIC determination in microdilution assay, Mtb H37Rv; format: cell-based; details: Mycobacterium tuberculosis
[3] = test system: M. avium (ATCC 700891 MAC 101); assay: MIC determination in microdilution assay, M. avium; format: cell-based; details: Mycobacterium avium, ATCC700891
[4] = test system: Mycobacterium avium complex (ATCC 700891 MAC 101); assay: Ex vivo efficacy, M. avium; format: cell-based
Experimental: as §1

[5] = HeLa cells, read-out: HeLa Cytotoxicity (IC50 μg/ml)
[6] = HepG2 cells, read-out: HepG2 Cytotoxicity (IC50 μg/ml)
[7] = THP-1 cells, read-out: THP-1 Cytotoxicity (IC50 μg/ml)

SMILES	M. abscessus ex vivo efficacy (>90% inhibition μg/ml) [1]	MIC [2]	IC50 (in vitro; [5])	IC50 (in vitro; [6])	IC50 (in vitro; [7])	MIC (Mtb H37Rv)	MIC [3]	M. avium ex vivo efficacy (>90% inhibition μg/ml) [4]	melting point
CC(C)N(C(=O)CCc1nc2cc(Cl)c(Cl)cc2[nH]1)C(C)C [Example 19]	≤0.125 µg/mL	1 µg/mL (≈ 2.92 µM)	1 µg/mL (≈ 2.92 µM)	≤ 0.125 µg/mL	≤ 0.125 µg/mL	≤ 0.125 µg/mL	8 µg/mL (≈ 23.4 µM)	≤0.125 µg/mL	–
Cc1cc2nc(CCC(=O)N(C(C)C)C(C)C)[nH]c2cc1C [Example 21A]	0.25 µg/mL	2 µg/mL (≈ 6.63 µM)	2 µg/mL (≈ 6.63 µM)	≤ 0.125 µg/mL	≤ 0.125 µg/mL	0.25 µg/mL (≈ 0.829 µM)	16 µg/mL (≈ 53.1 µM)	0.25 µg/mL	–
Cc1cc2nc(SCC(=O)N(C(C)C)C(C)C)[nH]c2cc1C [Example 2, 2-[(5,6-dimethyl-1H-1,3-benzodiazol-2-yl)sulfanyl]-N,N-bis(propan-2-yl)acetamide]	0.25 µg/mL	4 µg/mL (≈ 12.5 µM)	4 µg/mL (≈ 12.5 µM)	0.5 µg/mL (≈ 1.57 µM)	0.5 µg/mL (≈ 1.57 µM)	0.5 µg/mL (≈ 1.57 µM)	> 64 µg/mL	0.5 µg/mL	172 °C
